Results from ChEMBL document CHEMBL2010637, “Synthesis and evaluation of triazolones as checkpoint kinase 1 inhibitors” (Bioorg Med Chem Lett, 2012).

What was measured:
[1] = Clearance in nude mouse; assay type: ADME, organism-based; conditions: in vivo
[2] = Half life in nude mouse; assay type: ADME, organism-based; conditions: in vivo
[3] = AUC in nude mouse; assay type: ADME, organism-based; conditions: plasma
[4] = Volume of distribution at steady state in nude mouse; assay type: ADME, organism-based; conditions: in vivo, read-out: Vdss
[5] = Lipophilicity, Log D of the compound; assay type: physicochemical; conditions: octanol/water

O=c1[nH]nc2cc(CO)c3ccc(-c4ccc[nH]4)cc3n12
clearance [1]: 33 mL/min/kg | half-life [2]: 1.8 h | AUC [3]: 5.47 µM·h | Vd [4]: 3.4 L/kg | logD [5]: 2.19
